We go through two molecules from article PMC11685127, “Pharmacokinetic/pharma-codynamic study of pralurbactam (FL058) combined with meropenem in a neutropenic murine thigh infection model” (Frontiers in Microbiology, 2024).

One may read the MIC as the least concentration at which growth counts as inhibited.

Each structure is given as a SMILES string. Where two headings read alike, the source gives them in different places.

In one data set the test system is K. pneumoniae. Put plainly: Susceptibility testing (MIC). In kind it is cell-based. The following applies: drug alone. The source says:
(§1) The study used a total of […] strains of KPC-, NDM-, or OXA-producing Enterobacterales (three strains of K. pneumoniae and four strains of E. coli), which were provided by Microbiology Division, Institute of Antibiotics, Huashan Hospital, Fudan University. Quality control strains are selected for each bacteria.
(§2) Supplementary Table 1 Susceptibility testing results of meropenem alone, pralurbactam alone, or meropenem with FL058 in combination against K. pneumoniae and E. coli

The subject of another data set is E. coli. Put plainly: Susceptibility testing (MIC). In kind it is cell-based. The following applies: drug alone.
From the text: as §1, §2

In data set [1] the test system is Escherichia coli. Put plainly: Neutropenic murine thigh infection model, PK/PD Emax fitting. In kind it is in vivo. The following applies: 50 mg/kg meropenem alone q2h (without pralurbactam); strains 18-W40-096 and ATCC BAA-2452. As for the experimental part:
(§3) Mice (SPF grade, female, 25–30 g, 6–7 weeks) were provided by Beijing Huafukang Biotechnology Co. The animal study was reviewed and approved by the Animal Ethics Committee of State Key Laboratory of Biotherapy, Sichuan University (approval letter No.: 20190923035). All experimental animals from the study were intraperitoneally injected with cyclophosphamide (solution using 0.9% sodium chloride injection to achieve a concentration of 15 mg/ml) at a dose of 150 mg/kg at 4 days and 1 day prior to the day of infection to form immunocompromised mouse models. The hair on both thighs of the mice was shaved off 2 h before inoculation. The injection site was disinfected with 75% alcohol before intramuscular injection and dried with skimmed cotton. The mouse was challenged by inoculum of 1 × 10^8 CFU/ml of the test strain via injection of 50 μl of bacterial solution into both thighs. The time was referred to as t = 0 h, 2 h after the mice were infected. The control mice were euthanized at this time to record the initial bacterial colonies by taking the thigh muscle. The specific dosage of pralurbactam or meropenem for each dosing regimen was intraperitoneally injected (t = 0 h). At 26 h after the mice were infected (t = 24 h), the mice (experimental group) in each dosage cohort were euthanized to record the bacterial load to calculate CFU change (Δlog10 CFU).

The nature of data set [2]: Single-dose intraperitoneal PK of pralurbactam in mice plasma (UPLC-MS/MS, one-compartment model, population PK). The note with it: for Dose proportionality of Cmax or AUCinf (PK linearity): 5-500 mg/kg ip, non-compartmental regression analysis. Format: in vivo. The source says: The ultra-high performance liquid chromatography-tandem mass spectrometry (UPLC-MS/MS) system consisted of an LC-30A UPLC (Shimadzu Corporation, Japan) equipped with an Atlantis® T3 (3 μm, 2.1 × 100 mm) column, liquidity, and the cleaning solution mixed with formic acid, ammonium acetate, and acetonitrile, an API5500 mass spectrometer (AB SCIEX, USA). The retention times of chromatographic peaks and mass-to-charge ratios were obtained by MRM scanning pralurbactam (m/z 383.2 → 303.0), meropenem (m/z 384.1 → 141.2), internal standards pralurbactam-D4 (m/z 387.3 → 307.1), and meropenem-D6 (m/z 390.1 → 147.2) for peak identification. The drug concentration in the samples was calculated using Watson LIMS (version 7.5).
The UPLC-MS/MS method used to measure pralurbactam and meropenem concentrations in mice plasma was validated accurately in terms of selectivity, interaction, matrix effect, calibration curve, linearity, precision, accuracy, recovery, and stability. […] At this LLOQ level, the intra- and inter-assay precision was 3.5%–9.0% and 6.3% for pralurbactam, 5.0%–10.7% and 14.3% for meropenem. The overall recovery of pralurbactam and meropenem was 81.2% and 58.6%, respectively, and the corresponding coefficient of variation (CV) was 8.0% and 5.4%. This assay method was applied to quantify pralurbactam and meropenem for PK study.
The administration method for pralurbactam or meropenem (dissolved in sterile water) is single-dose intraperitoneal injection. […] Five mice were randomly selected for anesthesia and orbital blood sampling at each time-point (0.083, 0.25, 0.5, 1, 2, 3, 4, and 6 h) after dosing. A blood sample (600–800 μl) was obtained from the mouse immediately. Each mouse selected for blood sampling at each time point was euthanized immediately. The concentrations of pralurbactam and meropenem in plasma samples were determined using the validated UPLC-MS/MS method. PK parameters (including non-compartmental parameter linear fitting and compartmental simulation) of pralurbactam and meropenem in plasma were calculated using Phoenix WinNonlin (version 8.1, Certara Corporation). The compartmental PK parameters of pralurbactam were used to calculate the fCmax, fAUC0–24, and %fT > CT. The free fraction of pralurbactam was 100% based on in vitro mouse plasma.
In this study, the PK parameters of pralurbactam were calculated for each dosage cohort using Phoenix WinNonlin software based on the mean plasma concentrations at each sampling point in mice. The mean values of the PK parameters were used to simulate the potential PK/PD indices. Another method, the PK parameters could be estimated by the population PK (PPK) model using NONMEM software based on the pooled plasma concentrations. The estimated typical values of Ke and V/F based on the population PK model of pralurbactam were generally consistent with the classical mean values of Ke (PPK: 2.34 h^1 vs. classical PK: 2.55 h^1) and V/F (PPK: 0.719 L vs. classical PK: 0.72 L).

The test system of a further data set is Klebsiella pneumoniae. Put plainly: Neutropenic murine thigh infection model, PK/PD Emax fitting. Format: in vivo. The note with it: fixed 100 mg/kg q2h of meropenem; strains 17-R1-16, 20-W2-70, ATCC BAA-1705. As for the experimental part: as §3
Data set [3] relates to Escherichia coli. The following applies: cited from earlier work.
The nature of data set [4]: Free fraction in in vitro mouse plasma. Format: in vitro ADME.
In data set [5] the test system is class A, C, and D β-lactamases. More on the design: method as in Sharma et al., 2016. The following applies: ref Sharma et al., 2016; cited from earlier work.
For data set [6] the following is noted: human, in vivo, cited from earlier work.
Where [7] appears, read: mean of all dosage cohorts, classical one-compartment PK.
Where [8] appears, read: population PK (PPK) model, NONMEM, typical value, pooled plasma concentrations.
Where [9] appears, read: pralurbactam 5 mg/kg ip single dose, alone, one-compartment model.
The mark [10] stands for this setting: pralurbactam 50 mg/kg ip single dose, alone, one-compartment model.
Setting [11] is: pralurbactam 50 mg/kg ip, combined with meropenem 100 mg/kg, one-compartment model.
The mark [12] stands for this setting: pralurbactam 250 mg/kg ip, combined with meropenem 100 mg/kg, one-compartment model.
The mark [13] stands for this setting: pralurbactam 500 mg/kg ip single dose, alone, one-compartment model.

As to `C[C@@H](O)[C@H]1C(=O)N2C(C(=O)O)=C(S[C@@H]3CN[C@H](C(=O)N(C)C)C3)[C@H](C)[C@H]12` [Meropenem], the MIC with K. pneumoniae (17-R1-16 (KPC-2, CTX-M-14)) was above 64 µg/mL; in the data set with K. pneumoniae (20-W2-70 (OXA-48)), 32 µg/mL; with K. pneumoniae (ATCC BAA-1705 (KPC-2)) it was 16 µg/mL; in the data set on E. coli (18-W32-020 (NDM-5)) it was 32 µg/mL; in the data set with E. coli (18-W39-088 (NDM-1)) it was above 64 µg/mL; with E. coli (18-W40-096 (NDM-1)) it was 64 µg/mL. For the same molecule, the MIC with E. coli (ATCC BAA-2452 (NDM-1)) was determined as 32 µg/mL. Further, in the data set on Escherichia coli [1], the “Growth inhibition in thigh model” value was “significant growth inhibition”.

With `N=C(N)NOCCONC(=O)[C@@H]1CC[C@@H]2CN1C(=O)N2OS(=O)(=O)O` [Pralurbactam], the “%fT > 1 mg/L” value is reported as 88% in data set [2] (50 mg/kg q2h pralurbactam intraperitoneally in mice) and 86% in data set [6] (iv). The results for the “Dose proportionality of Cmax or AUCinf (PK linearity)” value in data set [2] and in [2] (listed as pralurbactam) were “linear” and “dose proportional”, respectively. Also, the Ka in data set [2] (setting [7]) was 50.2 h^1; in data set [2] (median value of dosage cohorts, classical PK) it was 26.0 h^1; in data set [2] (population PK (PPK) model, NONMEM, estimate), 29.1 h^1; in [2] (setting [9]) it was 27.4 h^1; in [2] (setting [10]), 13.7 h^1; in [2] (setting [11]) it was 24.5 h^1. Further, the Ka in data set [2] (setting [12]) came out at 26.0 h^1; in [2] (setting [13]), 159.4 h^1. Moreover, the Ke in data set [2] (setting [7]) is 2.55 h^1; in data set [2] (setting [8]) it was 2.34 h^1; in [2] (setting [9]), 2.24 h^1; in data set [2] (setting [10]), 3.83 h^1; in data set [2] (setting [11]) it was 2.11 h^1; in data set [2] (setting [12]), 1.93 h^1. In [2] (setting [13]), the Ke worked out at 2.64 h^1. The V/F in data set [2] (setting [7]) stood at 0.72 L; in data set [2] (setting [8]), 0.719 L; in [2] (setting [9]), 0.77 L; in data set [2] (setting [10]) it was 0.55 L; in data set [2] (setting [11]), 0.79 L; in data set [2] (setting [12]), 0.91 L. Also, in data set [2] (setting [13]), the V/F is given as 0.57 L. Further, the MIC in the data set with K. pneumoniae (17-R1-16 (KPC-2, CTX-M-14)) is above 64 µg/mL; in the data set on K. pneumoniae (20-W2-70 (OXA-48)), 8 µg/mL; in the data set on K. pneumoniae (ATCC BAA-1705 (KPC-2)), 4 µg/mL; with E. coli (18-W32-020 (NDM-5)), 2 µg/mL; in the data set on E. coli (18-W39-088 (NDM-1)), 4 µg/mL; with E. coli (18-W40-096 (NDM-1)) it was 4 µg/mL. Moreover, the MIC in the data set with E. coli (ATCC BAA-2452 (NDM-1)) was 4 µg/mL. In the data set with Klebsiella pneumoniae, the “Pralurbactam dose in the combination that inhibits growth of all test strains” value is “at least 25 mg/kg”. Moreover, in the data set on Escherichia coli [3] (ref Huang et al., 2024a), the “Activity of pralurbactam alone” value was “partial activity”. Further, in the data set with Escherichia coli [3] (ref in vitro susceptibility study (to be published)), the “Inhibitory effect of pralurbactam alone” value is “notable inhibitory effects”. The Free fraction in [4] was determined as 100%. The “Activity against β-lactamases in vitro” value in data set [5] was “active”. In addition, the “Safety, tolerance and PK profiles” value in [6] is “good safety, tolerance, and PK profiles”.
